Experimental data reported in patent US8771641B2, “Aryloxyanilide imaging agents” (priority 2009, dated 2014).

Tests used:
[1] = cited from earlier work
[2] = target: PBR (Homo sapiens, UniProt P30536); conditions: in vivo; cited from earlier work
[3] = Metabolism assay: intact test compound in rat brain by HPLC; type: in vivo, Wistar rats; conditions: 60 minutes post-injection; for proportion intact in the brain (in words): compared with PBR06
Method: Example 12 describes the assay used to evaluate the amount of intact test in vivo imaging agent in rat brain at 60 minutes post-injection.
Brain tissue samples were collected from adult male Wistar rats (200-300 g) at 60 minutes after injection of test in vivo imaging agent. These samples were then processed via solvent extraction (see below) to extract the ^18F-labelled parent along with any ^18F-labelled metabolites, before introduction to the HPLC.
Brain (minus cerebellum +medulla pons) was homogenized with 10 mls of ice-cold Acetonitrile (5000 rpm for 5 mins) to extract all the ^18F-labelled species. The resulting supernatant was then evaporated to dryness (rotary evaporation at 40° C.), concentrated in 2.5 mls of mobile phase, filtered and 1 ml was injected onto the HPLC.
The HPLC set up for ^18F analysis was connected to a dual BGO radio & UV detector. A μBondapak C18 prep column was used having dimensions 7.8×300 mm; 10 μm; 125 Å. An isocratic elution system was used using between 30-40% water and between 60-70% acetonitrile. The flow rate was 3 ml/min. The aqueous to organic phase ratio was varied for each test in vivo imaging agent to obtain a parent peak at retention time at or around 10 min±2 min.

[4] = target: T1, PBR (Rattus norvegicus, UniProt P16257); test: In vivo biodistribution model: OB:striatum uptake; design: species or system Wistar rats; conditions: injection via lateral tail vein, 2, 10, 30 or 60 min, in words, compared with PBR06
T1 construct: OB is known to express higher levels of PBR compared with other areas of rat brain; from tissue; host or cells: living Wistar rats; olfactory bulb and striatum sampled
T1 sequence (P16257 whole entry): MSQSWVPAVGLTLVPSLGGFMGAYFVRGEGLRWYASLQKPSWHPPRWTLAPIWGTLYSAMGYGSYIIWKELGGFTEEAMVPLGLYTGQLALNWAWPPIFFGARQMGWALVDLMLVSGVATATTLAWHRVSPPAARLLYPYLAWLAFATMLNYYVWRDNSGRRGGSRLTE
Method: Example 11 describes the rat biodistribution model that was used to compare in vivo imaging agents of the invention with PBR06. […] As OB is known to express higher levels of PBR compared with other areas of rat brain (see “Handbook of Substance Abuse” by Tarter, Ammerman and Ott; Springer 1998: 398-99) the ratio OB:striatum is a measure of specificity of test compound uptake.
PBR06 (synthesised according to Briard et al J Med Chem 2009; 52: 688-699) and in vivo imaging agents 1-3 were tested in an in vivo biodistribution model and their respective biodistributions compared.
Adult male Wistar rats (200-300 g) were injected with 1-3 MBq of test compound via the lateral tail vein. At 2, 10, 30 or 60 min (n=3) after injection, rats were euthanised and tissues or fluids were sampled for radioactive measurement on a gamma counter.

[5] = Briard et al J Med Chem 2009; cited from earlier work
[6] = target: Wistar rat heart PBR (Rattus norvegicus, UniProt P16257); test: biochemical
Wistar rat heart PBR, sequence (P16257 whole entry): as above
Method: Affinity for PBR was screened using a method adapted from Le Fur et al (Life Sci. 1983; USA 33: 449-57).
Each test compound (dissolved in 50 mM Tris-HCl, pH 7.4, 10 mM MgCl2 containing 1% DMSO) competed for binding to Wistar rat heart PBR against 0.3 nM [^3H] […] The reaction was carried out in 50 mM Tris-HCl, pH 7.4 10 mM MgCl2 for 15 minutes at 25° C.

PBR (Homo sapiens, UniProt P30536), sequence (P30536 whole entry, species assumed): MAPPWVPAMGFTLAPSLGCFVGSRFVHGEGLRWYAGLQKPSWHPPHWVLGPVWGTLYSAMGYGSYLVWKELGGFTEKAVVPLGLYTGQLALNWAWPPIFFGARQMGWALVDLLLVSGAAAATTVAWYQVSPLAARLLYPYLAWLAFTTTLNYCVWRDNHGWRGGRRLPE

Structure (SMILES) | protein binding [1] | specific to non-specific binding [2] | percentage of radioactivity in the brain representing intact test compound [3] [%] | OB:striatum uptake (ratio of uptake in olfactory bulb compared to striatum) [4] | metabolism in the periphery [5] | penetration of metabolites through the blood-brain barrier [5] | Ki [6] [nM] | proportion intact in the brain (in words) [3]
CC[C@@H](C)N([11CH3])C(=O)c1cc2ccccc2c(-c2ccccc2Cl)n1 [(R)-[^11C]PK11195] | high protein binding | low specific to non-specific binding |  |  |  |  |  | 
COc1ccc(OC)c(CN(C(=O)C[18F])c2ccccc2Oc2ccccc2)c1 [PBR06, reference compound] |  |  | 90 | less than optimal for in vivo imaging | metabolised quite rapidly in the periphery | do not penetrate the blood-brain barrier | 0.28 | 
O=C(C[18F])N(Cc1cccc2c1OCC2)c1ccccc1Oc1ccccc1 [in vivo imaging agent 1] |  |  | 93 | taken up relatively more in the OB as compared with the striatum |  |  | 0.31 | even higher proportion intact in the brain at 60 minutes post-injection as compared with PBR06
O=C(C[18F])N(Cc1cccc2c1OCO2)c1ccccc1Oc1ccccc1 [in vivo imaging agent 2] |  |  | 92 | comparable with PBR06 |  |  | 2.03 | even higher proportion intact in the brain at 60 minutes post-injection as compared with PBR06
O=C(C[18F])N(Cc1cccc2c1OCCO2)c1ccccc1Oc1ccccc1 [in vivo imaging agent 3] |  |  | 82 | comparable with PBR06 |  |  | 1.14 | 
CC1(C)Cc2cccc(CN(C(=O)C[18F])c3ccccc3Oc3ccccc3)c2O1 [in vivo imaging agent 4] |  |  |  |  |  |  | 2.66 | 
